Where “and” joins values, the source holds several entries; their conditions need not be identical. Equal values may be shown once.
What was measured:
[1] = test system: leukemia L1210; test: Leukemia L1210 in vivo, measurement of survival time (Table XII); set-up: species or system B6 D2 Fl (C 57 Bl/6×DBA/2) Fl mice; MST: unit not given here; details: for Death interval (mice) / ILS % / MST / Surviving mice: i.p.
Experimental: The following pharmacological trials relate to the effects of the compounds of the invention on leukemia L1210 in vivo.
G. Proc. Nat. Acad. Sci. 1972, 69, 1042-1047 and Schepartz S., Screening 1971, Cancer Chemother. Part 3; Vol. 2, p. 3].
The properties were determined by the curative action inoculated experimental leukemia L1210. This leukemia was maintained on B6 D2 Fl (C 57 Bl/6×DBA/2) Fl mice in the proportion of 6 or 10 mice per experimental batch. The compounds to be tested were injected by the intraperitoneal route one or several days after inoculation of the cells (1 injection only). […] The death interval was determined, the first figure of the Table indicating the date of the first mouse death and the second the date of the last mouse death. The mean survival time was also measured (MST). A characteristic value is the percentage of increased life span (ILS %). This value (Cancer. Res. 1971, 31, 1883-1887) is the ratio: [formula] where S^t =survival of treated animals and
S^c =survival of control animals.

[2] = test system: leukemia L1210; test: Leukemia L1210 in vivo, effect of the day of inoculation (Table XIII); set-up: species or system mice; details: 15 mg/kg; for Death interval / ILS % / Mean survival time: 10^5 cells; for Surviving mice: groups of 6 mice
Experimental: The properties were determined by the curative action inoculated experimental leukemia L1210. This leukemia was maintained on B6 D2 Fl (C 57 Bl/6×DBA/2) Fl mice in the proportion of 6 or 10 mice per experimental batch. The compounds to be tested were injected by the intraperitoneal route one or several days after inoculation of the cells (1 injection only). The death interval was determined, the first figure of the Table indicating the date of the first mouse death and the second the date of the last mouse death. The mean survival time was also measured (MST). A characteristic value is the percentage of increased life span (ILS %).
As in the above test the death interval was determined, the mean survival time (MST) was measured and the percentage of increased life span (ILS %) was calculated.

[3] = test system: cells of viro-induced leukemia of Friend; test: In vitro cytotoxic study on cells of the Friend leukemia of the mouse (Table XV); assay type: cell-based
Experimental: "In vitro" cytotoxic study of the compounds of the invention on the cells of viro-induced leukemia of Friend in the mouse [J. Exp. Med. 1957, 105, p. 307-318].
The cells were grown in suspension in the RPMI 1640 medium [catalogue of GIBCO Bio-Cult-Ltd, Washington Road Sandyford Industrial Estate Paisley PA3 4EP Renfrewshire Scotland] supplement with 20% of embryonary calf serum, with penicillin and with streptopycin. The duplication time of the culture was about 11 hours. The growth factor is equal to 1 or very close to 1 (all the cells multiplying).
The cultures were seeded at times t=0 at the concentration of 2×10^5 cells per ml in Falcon dishes containing 4 ml of medium. 24 hours later, the product to be tested (in solution, in acetic water) was added, at the moment when the cells were in the exponential growth phase. 24 hours after the addition of the product, the cells were counted and the percentage of living cells determined by an exclusion test with trypan blue.

[4] = test system: L1210 cells; test: In vitro cytotoxic study on leukemia L1210 cells, complete inhibition of growth (Table XVI); assay type: cell-based
Experimental: Cytotoxic "in vitro" study on hamster cells on leukemia L1210 cells of the serie.
After 5 hours, the cells were attached to a plastic support and the products to be tested whose solutions had been formed in water or in DMSO (dimethylsulphoxide) if the product was little soluble in water, was added. In the latter case a control was carried out with the same final concentration of DMSO in the culture medium.
The state of the cells was examined 24, 48 and 72 hours later.
In the case of the L1210 cells, the tests were carried out in a medium gelled with agarose, the L1210 cells growing in suspension.

[5] = test system: virus of Friend's leukemia (VFA); test: Friend's leukemia, measurement of splenomegaly (Table XVII); assay type: in vivo, DBA2 male mice; details: for Mean weight of the spleen: 10 mg/kg (0.2 mg/mouse), day +15; for Mean weight of the spleen / Number of leukemic mice: D + 1; for Number of leukemic mice: 10 mg/kg, spleen >250 mg
Description: (§1) The following experiments related to the treatment of mice inoculated by the virus of Friend's leukemia.
(§2) In these experiments DBA2, male mice, aged from 2 to 3 months, of weight around 20 g, were used.
(§3) An anemia inducing strain of Friend's virus (VFA) maintained for several years in the laboratory was used. The viral stock was constituted by an acellular supernatant liquor obtained by the centrifugation of a ground product of leukemic spleens, carried out in an 0.5 M PBS-saccharose solution. The assay of the stock was done in vivo by the method described by JASMIN et al [J. Nat. Cancer Inst. 1974,53, 469-474]. The measurement is expressed in SD50 (50% spleen enlarging dose).
The Friend virus was injected in the mouse by the intraperitoneal route. […] The spleens were removed and then weighed individually.

[6] = test system: Friend's virus (VFA); test: Anemia inducing Friend's virus, dose/effect relationship (Table XIX); assay type: in vivo, mice; details: for Death interval / ILS % / Mean survival time: VFA 1/800, D+1; for Surviving mice: groups of 10 mice
Description: as §1, §2, §3
Experimental groups of 10 mice were used, into which the VFA virus (dilution 1/800-% of leukemias=100%) was injected on day Do. The compound 27 according to the invention was then injected at day D+1 at various doses according to the groups and the death interval, the mean survival time and the percentage of increased life span were determined.

[7] = experimental group of six mice, 15 mg/kg, day +1, 15 mg/kg
[8] = experimental group of six mice, 20 mg/kg, day +1

For `CCN(CC)CCCNc1nccc2c(C)c3[nH]c4ccc(OC)cc4c3c(C)c12` [Compound 27], the “Death interval (mice)” value ([1]; 10^5 cells, 10 mg/kg, day +3) was 12-31, the ILS % ([1]; 10^5 cells, 10 mg/kg, day +3) was 49.4% and the MST ([1]; 10^5 cells, 10 mg/kg, day +3) was 17.3. The “Death interval (mice)” value ([1]; 10^5 cells, 10 mg/kg, day +4) was 16-27, the ILS % ([1]; 10^5 cells, 10 mg/kg, day +4) was 92.3% and the MST ([1]; 10^5 cells, 10 mg/kg, day +4) was 20. The “Death interval (mice)” value ([1]; 10^5 cells, 15 mg/kg, day +1) was 17-43, the ILS % ([1]; 10^5 cells, 15 mg/kg, day +1) was 128.6% and the MST ([1]; 10^5 cells, 15 mg/kg, day +1) was 24. For the same compound, the “Death interval (mice)” value ([1]; 10^5 cells, 20 mg/kg, day +3) was 10-30, the ILS % ([1]; 10^5 cells, 20 mg/kg, day +3) was 42.7% and the MST ([1]; 10^5 cells, 20 mg/kg, day +3) was 16.5. The “Death interval (mice)” value ([1]; 10^5 cells, 20 mg/kg, day +4) was 17-23, the ILS % ([1]; 10^5 cells, 20 mg/kg, day +4) was 94.2% and the MST ([1]; 10^5 cells, 20 mg/kg, day +4) was 20.2. For the same compound, the Surviving mice ([1]; experimental group of six mice, 15 mg/kg, day +1) was 4 mice, the “Death interval (mice)” value [1, 7] was 19-35 and 20-32 and the MST [1, 7] was 25 and 26. The “Death interval (mice)” value [1, 8] was 20-31, the ILS % [1, 8] was 102.4% and the MST [1, 8] was 25.5. For the same compound, the Surviving mice [1, 8] was 4 mice, the “increase in the life span (ILS)” value ([1]; text: dose closest to the toxic dose, same conditions) was 134% and the “activity by day of inoculation” value [2] was “more active one day after inoculation of the cells”. For the same compound, the Death interval ([2]; D+1) was 15-29, the ILS % ([2]; D+1) was 82.6% and the Mean survival time ([2]; D+1) was 21. The Death interval ([2]; D+2) was 15-35, the ILS % ([2]; D+2) was 88.7% and the Mean survival time ([2]; D+2) was 21.7. The Death interval ([2]; D+3) was 13-25, the ILS % ([2]; D+3) was 56.5% and the Mean survival time ([2]; D+3) was 18. The Death interval ([2]; D+4) was 14-20, the ILS % ([2]; D+4) was 39.1% and the Mean survival time ([2]; D+4) was 16. For the same compound, the Death interval ([2]; Do(+3h)) was 16-25, the ILS % ([2]; Do(+3h)) was 80% and the Mean survival time ([2]; Do(+3h)) was 20.7. It also gave a Surviving mice ([2]; D+1) of 2 mice, a Surviving mice ([2]; D+2) of 0 mice and a Surviving mice ([2]; D+3) of 0 mice. The Surviving mice ([2]; D+4) was 0 mice, the Surviving mice ([2]; Do(+3h)) was 0 mice and the IC50 ([3]; Mus musculus, 24 h, read-out: LD 50 (50% lethal dose)) was 450 nM. The IC100 ([3]; Mus musculus, 24 h, read-out: LD 100 (100% lethal dose)) was 1.2 µM, the “LD 50 HUM / LD 50 product” value ([3]; ratio to reference HUM) was 0.65 and the IC (100 (complete growth inhibition, minimal)) ([4]; Mus musculus, L1210, medium gelled with agarose, read-out: Minimal dose leading to a complete inhibition of the growth) was 0.6 µM. For the same compound, the “activity compared with the reference BD40” value ([4]; summary of Table XVI) was “almost as active as the reference dipyrido-indole (BD40)”, the “protective power on Friend's leukemia” value ([5]; mouse, in vivo) was “has a protective power on Friend's leukemia” and the “Mean weight of the spleen” value ([5]; virus dilution 1/800) was 183 mg. The “Number of leukemic mice” value ([5]; virus dilution 1/800) was 2/10, the “Mean weight of the spleen” value ([5]; virus dilution 1/1600) was 199 mg and the “Number of leukemic mice” value ([5]; virus dilution 1/1600) was 0/5. The “Mean weight of the spleen” value ([5]; virus dilution 1/3200) was 220 mg, the “Number of leukemic mice” value ([5]; virus dilution 1/3200) was 1/5 and the deaths through toxicity ([6]; 15 mg/kg, group of 10 mice) was “Two”. The “dose/effect relationship” value ([6]; 5-15 mg/kg) was “proportional to the inoculated dose”, the Death interval ([6]; 5 mg/kg) was 25-36 and the ILS % ([6]; 5 mg/kg) was 31.78%. For the same compound, the Mean survival time ([6]; 5 mg/kg) was 31.1, the Death interval ([6]; 10 mg/kg) was 32-64 and the ILS % ([6]; 10 mg/kg) was 103%. The Mean survival time ([6]; 10 mg/kg) was 45.8, the Death interval ([6]; 15 mg/kg) was 33-63 and the Mean survival time ([6]; 15 mg/kg) was 49.9. The ILS % ([6]; 15 mg/kg, toxic deaths excluded) was 122%, the Surviving mice ([6]; 5 mg/kg) was 0 mice and the Surviving mice ([6]; 10 mg/kg) was 0 mice. It also gave a Surviving mice ([6]; 15 mg/kg) of 0 mice.
